For orientation: GI50 means the concentration at which growth is held to half of that of the control.

The structures appear in SMILES notation.

This is an account of results in paper PMC8591201, “Anti-Tumor Activity of AZD4547 Against NTRK1 Fusion Positive Cancer Cells Through Inhibition of NTRKs” (Frontiers in Oncology, 2021).

Holding throughout (test): cells
What all share (design): Anti-proliferation, 10-point dose response, CellTiter-Glo luminescence (MTT stated for KM12(Luc)), GI50 fitted in Prism
Background: ATP-based viability assays read luminescence as a measure of living cells.

One experiment concerns SW480. The conditions noted are these: Homo sapiens, SW480, 72 h, read-out: GI50 (µM) a.
The test system of another experiment is HEP3B. The following applies: Homo sapiens, Hep3B, 72 h, read-out: GI50 (µM) a.
Another experiment relates to HEC1A. The following applies: Homo sapiens, HEC-1-A, 72 h, read-out: GI50 (µM) a.
For the next experiment, the system named is KG-1. The conditions noted are these: Homo sapiens, KG-1, 72 h, read-out: GI50 (µM) a.
In the next experiment the test system is NCI-H1299. The following applies: Homo sapiens, NCI-H1299, 72 h, read-out: GI50 (µM) a.
Another experiment deals with 8505C. The following applies: Homo sapiens, 8505C, 72 h, read-out: GI50 (µM) a.
In a further experiment the test system is SK-HEP-1. The conditions noted are these: Homo sapiens, SK-HEP1, 72 h, read-out: GI50 (µM) a.
For a further experiment, the system named is NCI-H1975. The following applies: Homo sapiens, NCI-H1975, 72 h, read-out: GI50 (µM) a.
In the next experiment the test system is J82. The conditions noted are these: Homo sapiens, J82, 72 h, read-out: GI50 (µM) a.
Another experiment concerns C8161. The conditions noted are these: Homo sapiens, C8161, 72 h, read-out: GI50 (µM) a.
The test system of another experiment is HCC70. The following applies: Homo sapiens, HCC70, 72 h, read-out: GI50 (µM) a.
The test system of the next experiment is NCI-H1666. The conditions noted are these: Homo sapiens, NCI-H1666, 72 h, read-out: GI50 (µM) a.

`COc1cc(CCc2cc(NC(=O)c3ccc(N4C[C@@H](C)N[C@@H](C)C4)cc3)n[nH]2)cc(OC)c1` [AZD4547]: the 50% growth inhibitory concentration (GI50) in the experiment with SW480 was determined as 14.1 µM; in the experiment with HEP3B, 19.7 µM; in the experiment with HEC1A, 35.6 µM; in the experiment on KG-1, 6.27 µM; in the experiment on NCI-H1299, 60.6 µM; in the experiment on 8505C it was 14.7 µM. For the same compound, the GI50 in the experiment with SK-HEP-1 amounted to 12.6 µM; in the experiment with NCI-H1975, 28.9 µM; in the experiment on J82, 9.54 µM; with C8161, 11.1 µM; with HCC70, 16.6 µM; with NCI-H1666 it was 10.8 µM.
